target: ATP-dependent translocase ABCB1 (Homo sapiens, UniProt P08183); assay: TP_TRANSPORTER: increase in bodipy-FL-prazosin intracellular accumulation in MDR1-expressing NIH-3T3 cells; assay type: functional, cell-based; settings: mouse, nih3t3
Sequence (P08183 whole entry): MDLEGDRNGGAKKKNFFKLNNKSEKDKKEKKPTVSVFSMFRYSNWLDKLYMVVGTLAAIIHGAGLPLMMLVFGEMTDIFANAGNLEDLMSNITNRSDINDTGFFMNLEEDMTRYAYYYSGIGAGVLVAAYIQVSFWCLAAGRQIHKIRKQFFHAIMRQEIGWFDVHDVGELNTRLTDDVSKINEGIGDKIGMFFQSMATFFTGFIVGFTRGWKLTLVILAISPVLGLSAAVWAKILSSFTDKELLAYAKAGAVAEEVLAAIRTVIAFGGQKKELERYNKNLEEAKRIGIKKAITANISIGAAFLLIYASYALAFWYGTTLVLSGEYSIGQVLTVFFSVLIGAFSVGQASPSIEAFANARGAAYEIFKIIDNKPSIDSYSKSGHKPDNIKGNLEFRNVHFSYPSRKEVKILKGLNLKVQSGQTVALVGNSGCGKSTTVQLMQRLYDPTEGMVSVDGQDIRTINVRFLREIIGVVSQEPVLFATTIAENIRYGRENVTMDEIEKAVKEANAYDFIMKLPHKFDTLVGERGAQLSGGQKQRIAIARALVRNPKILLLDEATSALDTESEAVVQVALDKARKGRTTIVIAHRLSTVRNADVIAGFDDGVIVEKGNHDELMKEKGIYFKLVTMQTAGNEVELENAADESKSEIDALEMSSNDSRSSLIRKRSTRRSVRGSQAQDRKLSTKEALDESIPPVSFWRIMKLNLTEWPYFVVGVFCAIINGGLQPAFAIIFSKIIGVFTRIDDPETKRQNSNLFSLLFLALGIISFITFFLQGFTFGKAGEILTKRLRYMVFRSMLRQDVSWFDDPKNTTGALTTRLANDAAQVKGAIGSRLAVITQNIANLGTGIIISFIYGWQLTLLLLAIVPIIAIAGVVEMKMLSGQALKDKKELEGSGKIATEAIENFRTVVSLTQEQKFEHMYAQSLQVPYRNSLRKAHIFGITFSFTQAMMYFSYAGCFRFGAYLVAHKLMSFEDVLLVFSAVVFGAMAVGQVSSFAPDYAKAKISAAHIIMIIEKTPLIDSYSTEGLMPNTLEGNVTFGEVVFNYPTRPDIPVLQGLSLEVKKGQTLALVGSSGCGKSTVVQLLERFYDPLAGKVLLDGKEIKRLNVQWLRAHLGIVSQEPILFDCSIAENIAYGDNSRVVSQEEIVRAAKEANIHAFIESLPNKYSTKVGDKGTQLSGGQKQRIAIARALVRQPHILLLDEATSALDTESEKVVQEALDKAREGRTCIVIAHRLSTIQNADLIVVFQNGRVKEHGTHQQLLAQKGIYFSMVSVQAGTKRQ

For `C/C(=C\CCC#C/C=C/C(C)C(O)/C(C)=C/CCc1cccc2ccccc12)C(=O)NCCOCCOCCOCCOCCOCCO` (stereo unspecified) [STIPIAMIDE MONOMER], which Activity is on record?
The Activity was “is not an inhibitor [-]”.

How did the Activity turn out when `C/C(=C\CCC#C/C=C/C(C)C(O)/C(C)=C/CCc1cccc2ccccc12)C(=O)NCCOCCOCCOCCOCCOCCOCCOCCOCCOCCOCCOCCOCNC(=O)/C(C)=C/CCC#C/C=C/C(C)C(O)/C(C)=C/CCc1ccc2ccccc2c1` (stereo unspecified) was run?
The Activity was “inhibitor [+]”.

For `C/C(=C\CCC#C/C=C/C(C)C(O)/C(C)=C/CCc1cccc2ccccc12)C(=O)NCCOCCOCCOCCOCCOCCOCCOCCOCNC(=O)/C(C)=C/CCC#C/C=C/C(C)C(O)/C(C)=C/CCc1ccc2ccccc2c1` (stereo unspecified), which Activity is on record?
The Activity was “inhibitor [+]”.

How did the Activity turn out when `C/C(=C\CCC#C/C=C/C(C)C(O)/C(C)=C/CCc1ccc2ccccc2c1)C(=O)NCNC(=O)/C(C)=C/CCC#C/C=C/C(C)C(O)/C(C)=C/CCc1cccc2ccccc12` (stereo unspecified) was run?
Its Activity is “is not an inhibitor [-]”.

`C/C(=C\CCC#C/C=C/C(C)C(O)/C(C)=C/CCc1ccc2ccccc2c1)C(=O)NCCOCCOCCOCCOCCOCCNC(=O)/C(C)=C/CCC#C/C=C/C(C)C(O)/C(C)=C/CCc1cccc2ccccc12` (stereo unspecified) was tested. Which Activity did it give?
Its Activity is “inhibitor [+]”.

Which Activity does the source give for `C/C(=C\CCC#C/C=C/C(C)C(O)/C(C)=C/CCc1cccc2ccccc12)C(=O)NCCOCCOCNC(=O)/C(C)=C/CCC#C/C=C/C(C)C(O)/C(C)=C/CCc1ccc2ccccc2c1` (stereo unspecified) here?
The Activity was “is not an inhibitor [-]”.

— ChEMBL document CHEMBL2073912, “Biochemical basis of polyvalency as a strategy for enhancing the efficacy of P-glycoprotein (ABCB1) modulators: stipiamide homodimers separated with defined-length spacers reverse drug efflux with greater efficacy” (Biochemistry, 2004)
